Biological target: T1, human kinase Mps-1 (Homo sapiens, UniProt P33981)
T1 construct: N-terminally GST-tagged human full length recombinant Mps-1 kinase; GST (N); purchased Invitrogen, Karslruhe, Germany PV4071
T1 sequence (P33981 1-857): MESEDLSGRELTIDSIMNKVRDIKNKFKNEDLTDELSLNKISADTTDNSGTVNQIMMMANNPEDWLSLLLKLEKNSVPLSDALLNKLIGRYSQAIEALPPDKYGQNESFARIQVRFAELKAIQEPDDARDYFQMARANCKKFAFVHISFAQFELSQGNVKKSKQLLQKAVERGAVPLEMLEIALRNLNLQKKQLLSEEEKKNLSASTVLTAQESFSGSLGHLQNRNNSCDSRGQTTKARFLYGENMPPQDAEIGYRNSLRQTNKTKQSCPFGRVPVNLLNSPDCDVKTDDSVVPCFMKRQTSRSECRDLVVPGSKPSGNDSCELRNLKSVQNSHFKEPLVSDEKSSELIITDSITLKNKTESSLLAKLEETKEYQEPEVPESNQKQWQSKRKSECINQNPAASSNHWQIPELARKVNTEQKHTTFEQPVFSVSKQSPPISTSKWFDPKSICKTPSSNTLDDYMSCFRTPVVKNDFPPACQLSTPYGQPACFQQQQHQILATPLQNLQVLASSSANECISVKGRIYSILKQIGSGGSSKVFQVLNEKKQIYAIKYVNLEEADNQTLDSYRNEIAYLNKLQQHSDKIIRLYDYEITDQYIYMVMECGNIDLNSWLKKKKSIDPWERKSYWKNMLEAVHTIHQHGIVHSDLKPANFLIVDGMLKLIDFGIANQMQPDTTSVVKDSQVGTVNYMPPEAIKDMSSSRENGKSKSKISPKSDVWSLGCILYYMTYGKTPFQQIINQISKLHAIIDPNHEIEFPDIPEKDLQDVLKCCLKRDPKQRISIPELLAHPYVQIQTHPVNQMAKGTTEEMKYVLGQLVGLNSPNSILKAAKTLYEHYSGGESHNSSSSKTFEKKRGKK
Test: Mps-1 kinase assay (TR-FRET)
Assay type: biochemical
Conditions: N-terminally GST-tagged human full length recombinant Mps-1; 10 μM ATP; 1 μM peptide substrate; 60 min at 22° C.
Protocol: The human kinase Mps-1 phosphorylates a biotinylated substrate peptide. Detection of the phosphorylated product is achieved by time-resolved fluorescence resonance energy transfer (TR-FRET) from Europium-labelled anti-phospho-Serine/Threonine antibody as donor to streptavidin labelled with cross-linked allophycocyanin (SA-XLent) as acceptor. Compounds are tested for their inhibition of the kinase activity.
N-terminally GST-tagged human full length recombinant Mps-1 kinase (purchased from Invitrogen, Karslruhe, Germany, cat. no PV4071) was used. As substrate for the kinase reaction a biotinylated peptide of the amino-acid sequence […] (C-terminus in amide form, purchased from Biosynthan GmbH, Berlin) was used.
The concentration of Mps-1 in the assay was adjusted to the activity of the enzyme lot and was chosen appropriate to have the assay in the linear range, typical enzyme concentrations were in the range of about 1 nM (final conc. in the 5 μl assay volume).
The resulting mixture was incubated 1 h at 22° C. to allow the binding of the phosphorylated peptide to the anti-phospho(Ser/Thr)-Europium-antibody. Subsequently the amount of phosphorylated substrate was evaluated by measurement of the resonance energy transfer from the Europium-labelled anti-phospho(Ser/Thr) antibody to the Streptavidin-XLent.

**Q.** `Cc1cc(-c2cnc3c(NCCC(F)(F)F)cc(Oc4cccc(O)c4)cn23)ccc1C(=O)NC1CC1` [Example 136, N-cyclopropyl-4-{6-(3-hydroxyphenoxy)-8-[(3,3,3-trifluoropropyl)amino]imidazo[1,2-a]pyridin-3-yl}-2-methylbenzamide] was tested. Which IC50 did it give?
**A.** Its IC50 is 0.5 nM.

**Q.** For `Cc1cc(-c2cnc3c(NCCC(F)(F)F)cc(Oc4cccc(F)c4)cn23)ccc1C(=O)N[C@H]1C[C@@H]1F` (relative stereo) [Example 12 (rac.-A), N-[rel-(1S,2S)-2-fluorocyclopropyl]-4-{6-(3-fluorophenoxy)-8-[(3,3,3-trifluoropropyl)amino]imidazo[1,2-a]pyridin-3-yl}-2-methylbenzamide], which IC50 is on record?
**A.** The IC50 was 1.1 nM.

**Q.** Which IC50 does the source give for `Cc1cc(-c2cnc3c(NCCC(F)(F)F)cc(Oc4cccc(F)c4)cn23)ccc1C(=O)NC1CC1F` (single isomer, unassigned) [Example 12 (A or ent.-A), N-{[(1S,2S) or (1R,2R)]-2-fluorocyclopropyl}-4-{6-(3-fluorophenoxy)-8-[(3,3,3-trifluoropropyl)amino]imidazo[1,2-a]pyridin-3-yl}-2-methylbenzamide] here?
**A.** The IC50 was 0.8 nM.

**Q.** For `Cc1cc(-c2cc(NCC3CCOCC3)c3ncc(-c4ccc(C(=O)NC5CC5)c(C)c4)n3c2)ccc1C(=O)NC1CC1` [Example 9, 4,4′-{8-[(Tetrahydro-2H-pyran-4-ylmethyl)amino]imidazo[1,2-a]pyridine-3,6-diyl}bis(N-cyclopropyl-2-methylbenzamide)], which IC50 is on record?
**A.** The IC50 was 0.4 nM.

**Q.** How did the IC50 turn out when `CCNC(=O)c1ccc(-c2cnc3c(NCCC(F)(F)F)cc(-c4ccncc4)cn23)cc1C` [Example 89, N-ethyl-2-methyl-4-{6-(pyridin-4-yl)-8-[(3,3,3-trifluoropropyl)amino]imidazo[1,2-a]pyridin-3-yl}benzamide] was run?
**A.** The IC50 was 6.9 nM.

**Q.** Which IC50 does the source give for `CNC(=O)c1ccc(-c2cnc3c(NCCC(F)(F)F)cc(Oc4cccc(OC)c4)cn23)cc1C` [Example 55, 4-{6-(3-Methoxyphenoxy)-8-[(3,3,3-trifluoropropyl)amino]imidazo[1,2-a]pyridin-3-yl}-N,2-dimethylbenzamide] here?
**A.** Its IC50 is 2.9 nM.

**Q.** For `CCc1cc(NCCC(F)(F)F)c2ncc(-c3ccc(C(=O)NC)c(C)c3)n2c1` [Example 100, 4-{6-Ethyl-8-[(3,3,3-trifluoropropyl)amino]imidazo[1,2-a]pyridin-3-yl}-N,2-dimethylbenzamide], which IC50 is on record?
**A.** The IC50 was 106 nM.

**Q.** With `CCNC(=O)c1ccc(-c2cnc3c(NCCC(F)(F)F)cc(Oc4cccc(F)c4F)cn23)cc1C` [Example 73, 4-{6-(2,3-Difluorophenoxy)-8-[(3,3,3-trifluoropropyl)amino]imidazo[1,2-a]pyridin-3-yl}-N-ethyl-2-methylbenzamide] as the compound, how does the IC50 read?
**A.** The IC50 was 1.2 nM.

**Q.** For `Cc1cc(-c2cnc3c(NCCC(F)(F)F)cc(Oc4cccc(F)c4O)cn23)ccc1C(=O)NC1CC1` [Example 176, N-cyclopropyl-4-{6-(3-fluoro-2-hydroxyphenoxy)-8-[(3,3,3-trifluoropropyl)amino]imidazo[1,2-a]pyridin-3-yl}-2-methylbenzamide], which IC50 is on record?
**A.** Its IC50 is 1.8 nM.

**Q.** `CCNC(=O)c1ccc(-c2cnc3c(NCCC(F)(F)F)cc(-c4ccccc4OC)cn23)cc1C` [Example 82, N-ethyl-4-{6-(2-methoxyphenyl)-8-[(3,3,3-trifluoropropyl)amino]imidazo[1,2-a]pyridin-3-yl}-2-methylbenzamide] was tested. Which IC50 did it give?
**A.** Its IC50 is 21.3 nM.

**Q.** Which IC50 does the source give for `Cc1ccc(F)cc1Oc1cc(NCCC(F)(F)F)c2ncc(-c3ccc(C(=O)N[C@@H]4C[C@H]4C)c(C)c3)n2c1` (relative stereo) [Example 61, Rel-4-{6-(5-fluoro-2-methylphenoxy)-8-[(3,3,3-trifluoropropyl)amino]imidazo[1,2-a]pyridin-3-yl}-2-methyl-N-[(1R,2R)-2-methylcyclopropyl]benzamide] here?
**A.** The IC50 was 4.9 nM.

**Q.** How did the IC50 turn out when `CNC(=O)c1ccc(-c2cnc3c(NCCC(F)(F)F)cc(C(C)O)cn23)cc1C` (racemic) [Example 144, 4-{6-[(1RS)-1-Hydroxyethyl]-8-[(3,3,3-trifluoropropyl)amino]imidazo[1,2-a]pyridin-3-yl}-N,2-dimethylbenzamide] was run?
**A.** The IC50 was 233 nM.

**Q.** Which IC50 does the source give for `CCNC(=O)c1ccc(-c2cc(NCCC(F)(F)F)c3ncc(-c4ccc(C(=O)NC)c(C)c4)n3c2)cc1C` [Example 159, 4-{6-[4-(ethylcarbamoyl)-3-methylphenyl]-8-[(3,3,3-trifluoropropyl)amino]imidazo[1,2-a]pyridin-3-yl}-N,2-dimethylbenzamide] here?
**A.** The IC50 was 9.1 nM.

**Q.** `CNC(=O)c1ccc(-c2cnc3c(NCCC(F)(F)F)cc(-c4ccccc4O)cn23)cc1C` [Example 133, 4-{6-(2-Hydroxyphenyl)-8-[(3,3,3-trifluoropropyl)amino]imidazo[1,2-a]pyridin-3-yl}-N,2-dimethylbenzamide] was tested. Which IC50 did it give?
**A.** Its IC50 is 12.6 nM.

**Q.** With `CCNC(=O)c1ccc(-c2cnc3c(NCCC(F)(F)F)cc(CC)cn23)cc1C` [Example 101, N-ethyl-4-{6-ethyl-8-[(3,3,3-trifluoropropyl)amino]imidazo[1,2-a]pyridin-3-yl}-2-methylbenzamide] as the compound, how does the IC50 read?
**A.** The IC50 was 123 nM.

**Q.** Which IC50 does the source give for `Cc1cc(-c2cnc3c(NCCC(F)(F)F)cc(Sc4ccccc4N)cn23)ccc1C(=O)NC1CC1` [Example 3-4, 4-{6-[(2-aminophenyl)sulfanyl]-8-[(3,3,3-trifluoropropyl)amino]imidazo[1,2-a]pyridin-3-yl}-N-cyclopropyl-2-methylbenzamide] here?
**A.** The IC50 was 2 nM.

**Q.** For `Cc1cc(-c2cnc3c(NCCC(F)(F)F)cc(Sc4ccccc4)cn23)ccc1C(=O)NC1CC1` [Example 3-3, N-cyclopropyl-2-methyl-4-{6-(phenylsulfanyl)-8-[(3,3,3-trifluoropropyl)amino]imidazo[1,2-a]pyridin-3-yl} benzamide], which IC50 is on record?
**A.** Its IC50 is 0.5 nM.

**Q.** Which IC50 does the source give for `C=Cc1cc(NCCC(F)(F)F)c2ncc(-c3ccc(C(=O)NCC)c(C)c3)n2c1` [Example 94, N-ethyl-2-methyl-4-{8-[(3,3,3-trifluoropropyl)amino]-6-vinylimidazo[1,2-a]pyridin-3-yl}benzamide] here?
**A.** The IC50 was 84.3 nM.

**Q.** How did the IC50 turn out when `CNC(=O)c1ccc(-c2cnc3c(NCCC(F)(F)F)cc(-c4ccc(C(=O)NC5CC5)c(C)c4)cn23)cc1C` [Example 158, 4-{6-[4-(cyclopropylcarbamoyl)-3-methylphenyl]-8-[(3,3,3-trifluoropropyl)amino]imidazo[1,2-a]pyridin-3-yl}-N,2-dimethylbenzamide] was run?
**A.** Its IC50 is 6.2 nM.

**Q.** How did the IC50 turn out when `Cc1cc(-c2cnc3c(NCCC(F)(F)F)cc(-c4ccncc4)cn23)ccc1C(=O)NC1(C#N)CC1` [Example 91, N-(1-cyanocyclopropyl)-2-methyl-4-{6-(pyridin-4-yl)-8-[(3,3,3-trifluoropropyl)amino]imidazo[1,2-a]pyridin-3-yl}benzamide] was run?
**A.** The IC50 was 20.6 nM.

**Q.** For `COCCNc1cc(C(=O)c2cc(F)ccc2O)cn2c(-c3ccc(C(=O)NC4CC4)c(C)c3)cnc12` [Example 174, N-cyclopropyl-4-{6-(5-fluoro-2-hydroxybenzoyl)-8-[(2-methoxyethyl)amino]imidazo[1,2-a]pyridin-3-yl}-2-methylbenzamide], which IC50 is on record?
**A.** The IC50 was 816 nM.

**Q.** For `CNC(=O)c1ccc(-c2cc(NCCC(F)(F)F)c3ncc(-c4ccc(C(=O)NC5CC5)c(C)c4)n3c2)cc1C` [Example 147, 4-{3-[4-(cyclopropylcarbamoyl)-3-methylphenyl]-8-[(3,3,3-trifluoropropyl)amino]imidazo[1,2-a]pyridin-6-yl}-N,2-dimethylbenzamide], which IC50 is on record?
**A.** Its IC50 is 0.5 nM.

**Q.** Which IC50 does the source give for `C=Cc1cc(NCCC(F)(F)F)c2ncc(-c3ccc(C(=O)NC4CC4)c(C)c3)n2c1` [Example 92, N-cyclopropyl-2-methyl-4-{8-[(3,3,3-trifluoropropyl)amino]-6-vinylimidazo[1,2-a]pyridin-3-yl}benzamide] here?
**A.** The IC50 was 13.2 nM.

**Q.** For `CCNC(=O)c1ccc(-c2cnc3c(NCCC(F)(F)F)cc(Oc4cccc(F)c4)cn23)cc1C` [Example 10, N-ethyl-4-{6-(3-fluorophenoxy)-8-[(3,3,3-trifluoropropyl)amino]imidazo[1,2-a]pyridin-3-yl}-2-methylbenzamide], which IC50 is on record?
**A.** The IC50 was 2.9 nM.

**Q.** Which IC50 does the source give for `Cc1cc(-c2cnc3c(NCC(F)F)cc(Oc4cccc(F)c4)cn23)ccc1C(=O)NC1CC1` [Example 161, N-cyclopropyl-4-{8-[(2,2-difluoroethyl)amino]-6-(3-fluorophenoxy)imidazo[1,2-a]pyridin-3-yl}-2-methylbenzamide] here?
**A.** Its IC50 is 2.3 nM.
